Target: Protein kinase C (PKC) (Rattus norvegicus) (UniProt P05696+P68403+P09216+P63319+P09215+Q64617+Q9WTQ0+P09217)
Assay: Activation of protein kinase C
Assay type: protein assay

| SMILES | Dose [µM] |
| --- | --- |
| CCCCCCCC(=O)OCC(CO)OC(=O)CCc1cccc(I)c1 (stereo not drawn) | 1 |
| CC(=O)OCC(CO)OC(=O)CCCCCCCCCCCCCCc1cccc(I)c1 (stereo not drawn) | 1 |
| CC(=O)OC(CO)COC(=O)CCCCCCCCCCCCCCc1cccc(I)c1 (stereo not drawn) | 1 |

Reference: ChEMBL document CHEMBL1124585, “Iodoaryl analogues of dioctanoylglycerol and 1-oleoyl-2-acetylglycerol as probes for protein kinase C” (J Med Chem, 1989)
